Source: PMC8065987, “Identification of Anti-Inflammatory and Anti-Proliferative Neolignanamides from Warburgia ugandensis Employing Multi-Target Affinity Ultrafiltration and LC-MS” (Pharmaceuticals, 2021)
Like-named read-outs stand apart in the source and are kept apart here.

What was measured:
[1] = test system: human peripheral blood mononuclear cells (PBMCs) stimulated by lipopolysaccharide (LPS); design: method as in PMID 32877711; conditions: 100 µM; cited from earlier work
5-LOX = biological target: T1, 5-LOX (Homo sapiens, UniProt P09917); assay: Affinity ultrafiltration HPLC-MS/MS (AUF-HPLC-MS/MS) of WE-P with 5-LOX; conditions: relative binding strength = Aactive/Asample × 100%; peak in WE-P; n = 3
T1 construct: purchased Cayman Chemical Co., Ltd. (Ann Arbor, MI, USA)
T1 sequence (P09917 1-674): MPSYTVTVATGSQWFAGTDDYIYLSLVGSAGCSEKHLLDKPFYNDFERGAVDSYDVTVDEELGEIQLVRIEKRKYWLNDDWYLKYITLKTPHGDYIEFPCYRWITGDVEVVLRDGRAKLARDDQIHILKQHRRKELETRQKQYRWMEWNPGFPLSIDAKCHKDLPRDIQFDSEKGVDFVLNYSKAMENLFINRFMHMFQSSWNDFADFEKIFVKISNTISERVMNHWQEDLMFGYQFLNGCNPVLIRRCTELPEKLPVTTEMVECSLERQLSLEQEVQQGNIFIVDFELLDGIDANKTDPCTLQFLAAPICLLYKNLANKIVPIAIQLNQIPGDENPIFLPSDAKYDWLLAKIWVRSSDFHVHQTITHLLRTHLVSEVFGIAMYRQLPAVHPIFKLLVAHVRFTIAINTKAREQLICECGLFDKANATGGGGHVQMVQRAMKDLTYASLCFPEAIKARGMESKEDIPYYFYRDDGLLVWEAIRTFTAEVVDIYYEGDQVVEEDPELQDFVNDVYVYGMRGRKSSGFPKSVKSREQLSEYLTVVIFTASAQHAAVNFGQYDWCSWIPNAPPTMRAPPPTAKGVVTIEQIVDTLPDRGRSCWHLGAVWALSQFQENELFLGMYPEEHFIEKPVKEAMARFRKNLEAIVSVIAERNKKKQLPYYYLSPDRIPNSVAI
Procedure: (§1) The relative binding strength (RBS) was employed to compare the variation of the correlated peak areas in the AUF-HPLC-UV chromatograms before and after incubation with enzymes to evaluate the affinity binding abilities between potential ligands and target enzymes. The RBS formula is expressed as: RBS = (Aactive/Asample) × 100%, where the Aactive represents the peak areas obtained from the WE-P samples incubated with COX-2, 5-LOX, Top I or Top II, respectively; the Asample represents the peak areas obtained from WE-P samples without ultrafiltration. […] Namely, the special binding capacities of peak 2 with COX-2, 5-LOX, Top I and Top II might be stronger than that of peak 1. […] Therefore, it could be preliminarily estimated that peak 1 and peak 2 were the main bioactive components in WE-P which were closely related to its anti-inflammatory and anti-proliferative activities. These compounds were then identified based on their MS/MS data, related references and NMR or UPLC-QTOF-MS/MS data of isolated compounds, and the results are shown in Table 2.
(§2) Affinity ultrafiltration screening was slightly modified and carried out according to some previous studies. Firstly, approximately 100 µL of WE-P (10.0 mg/mL) were incubated with 10 µL of enzymes (2 U, COX-2, 5-LOX, Top I or Top II), and 90 µL of Tris-HCl (pH = 7.8) at 37 °C in the darkness for 1 h. […]

[2] = test system: human prostate cancer (PC-3) cells; design: method as in PMID 27504537; conditions: 72 h; read-out: GI50 (the 50% growth inhibition in 72 h), PC-3; cited from earlier work
Hela cells [3] = assay: Cell proliferative assay (SRB), Hela; type: cell-based; conditions: Homo sapiens, 48 h, read-out: Anti-proliferative IC50, Hela cells
Procedure: (§3) Human non-small cell lung adenocarcinoma cell line (A549) and human cervical cancer cell line (Hela) were obtained from the American Type Culture Collection (ATCC, Manassas, VA, USA) and maintained in Ham’s F-12K medium supplemented with 10% fetal bovine serum (FBS), 1% penicillin, and 1% streptomycin in a cell incubator under humidified conditions with 5% CO2 at 37 °C, and the procedures were slightly modified from previous method. To evaluate the proliferative activity of A549 cell line and Hela cell line, the SRB assay was carried out according to the manufacturer’s instructions (Beyotime, Shanghai, China). Briefly, these two cell lines were seeded into 96-well plates at a density of 1.0 × 10^4 per well. After 24 h incubation, the tested samples were dissolved in the DMSO and sequentially diluted with cell culture medium and added to each well at the specified concentrations. Cell viability was assessed by SRB 48 h later. Absorbances was measured by a Tecan microplate reader (Tecan Infinite M200 Pro, Tecan Group Ltd., Männedorf, Switzerland) at a wavelength of 540 nm. The experiments were performed in triplicate. The anti-proliferative activities were expressed as IC50. […] The data were expressed as mean ± standard deviation (SD) of three replicates.

RAW 264.7 cell line = test system: RAW 264.7 cell line; design: method as in doi:10.1016/j.phytol.2019.01.020; conditions: LPS-stimulated RAW 264.7; read-out: Inhibition of NO production IC50; cited from earlier work
Hela cells [4] = test system: Hela cells; design: method as in PMID 33301798; conditions: previous study; read-out: Anti-proliferative IC50, Hela cells; cited from earlier work
[5] = test system: human mammary adenocarcinoma (MCF-7) cells; design: method as in PMID 33301798; conditions: previous study; read-out: Anti-proliferative IC50, MCF-7 cells; cited from earlier work
COX-2 [6] = biological target: T2, COX-2 (Homo sapiens, UniProt P35354); assay: Affinity ultrafiltration HPLC-MS/MS (AUF-HPLC-MS/MS) of WE-P with COX-2; design: purchased Wuhan Antgene Biotechnology Co., Ltd. (Wuhan, China); conditions: relative binding strength = Aactive/Asample × 100%; peak in WE-P; n = 3
T2 sequence (P35354 18-604): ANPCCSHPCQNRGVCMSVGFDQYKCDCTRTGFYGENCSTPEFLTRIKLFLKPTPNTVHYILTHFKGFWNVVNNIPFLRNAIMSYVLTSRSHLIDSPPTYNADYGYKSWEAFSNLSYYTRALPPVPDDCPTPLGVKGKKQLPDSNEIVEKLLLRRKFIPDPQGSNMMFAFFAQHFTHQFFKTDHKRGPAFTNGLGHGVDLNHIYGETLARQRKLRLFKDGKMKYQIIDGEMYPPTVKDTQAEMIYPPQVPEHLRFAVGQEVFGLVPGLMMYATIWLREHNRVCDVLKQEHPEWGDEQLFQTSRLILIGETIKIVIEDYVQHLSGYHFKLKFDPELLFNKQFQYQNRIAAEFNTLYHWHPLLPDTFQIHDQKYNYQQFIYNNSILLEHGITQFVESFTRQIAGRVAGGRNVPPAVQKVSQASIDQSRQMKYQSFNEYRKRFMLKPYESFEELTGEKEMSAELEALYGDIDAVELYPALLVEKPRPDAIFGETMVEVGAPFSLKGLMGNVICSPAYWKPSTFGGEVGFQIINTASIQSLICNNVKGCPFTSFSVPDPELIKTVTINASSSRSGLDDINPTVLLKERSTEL
Procedure: as §1, §2

MCF-7 = test system: MCF-7; design: method as in PMID 27504537; conditions: 72 h; read-out: GI50 (the 50% growth inhibition in 72 h), MCF-7; cited from earlier work
[7] = test system: human colorectal adenocarcinoma (Caco-2) cells; design: method as in PMID 27504537; conditions: inactive or poorly active; cited from earlier work
Top II = assay: Affinity ultrafiltration HPLC-MS/MS (AUF-HPLC-MS/MS) of WE-P with Top II; conditions: relative binding strength = Aactive/Asample × 100%; peak in WE-P; n = 3
Procedure: as §1, §2

[8] = test system: LNCaP human prostate cancer cell; design: method as in PMID 11858758; conditions: previous study; cited from earlier work
Hela cell line = test system: Hela cell line; design: method as in PMID 32212861; conditions: previous study; cited from earlier work
Top I = assay: Affinity ultrafiltration HPLC-MS/MS (AUF-HPLC-MS/MS) of WE-P with Top I; conditions: relative binding strength = Aactive/Asample × 100%; peak in WE-P; n = 3
Procedure: as §1, §2

A549 cells [9] = assay: Cell proliferative assay (SRB), A549; type: cell-based; conditions: Homo sapiens, 48 h, read-out: Anti-proliferative IC50, A549 cells
Procedure: as §3

COX-2 [10] = biological target: T2, COX-2; assay: In vitro COX-2 inhibitory assay (COX-2 (human) inhibitor screening assay kit, fluorescence); type: biochemical; design: purchased Beyotime Biotechnology (Shanghai, China) S0168; conditions: triplicate; read-out: COX-2 inhibition IC50 (isolated compounds)
Procedure: Thirdly, 10 µL COX-2 probe was added into each well. […] The experiments were performed in triplicate.

A549 cells [11] = test system: A549 cells; design: method as in PMID 33301798; conditions: previous study; read-out: Anti-proliferative IC50, A549 cells; cited from earlier work

Row | SMILES | Release of GM-CSF [1] | Release of IL-1β [1] | Release of IL-2 [1] | Release of TNF-α [1] | UF-RBS (%) 5-LOX (5-LOX) | GI50 [2] | IC50 (Hela cells [3]) | IC50 (RAW 264.7 cell line) | IC50 (Hela cells [4]) | IC50 [5] | UF-RBS (%) COX-2 (COX-2 [6]) | GI50 (MCF-7) | GI50 [7] | UF-RBS (%) Top II (Top II) | Cytotoxicity in cultured LNCaP cells [8] | Anti-proliferative activity on Hela cell line (Hela cell line) | UF-RBS (%) Top I (Top I) | IC50 (A549 cells [9]) | IC50 (COX-2 [10]) | IC50 (A549 cells [11])
1 | COc1cc(C2Oc3c(OC)cc(/C=C/C(=O)NCCc4ccc(O)cc4)cc3C2C(=O)NCCc2ccc(O)cc2)ccc1O (stereo not drawn) [Compound 2, N-trans-grossamide] | 1.61 % of LPS control | 2.14 % of LPS control | 11.61 % of LPS control | 0.06 % of LPS control | 42.00 ± 1.26% | 21 µM | 72.8 ± 0.839 µM | 52.5 ± 6.1 µM | 20.1 ± 3.05 µM | 11.4 ± 1.62 µM | 27.39 ± 1.58% | 24 µM | > 100 µM | 58.57 ± 3.82% | moderate cytotoxicity | moderate anti-proliferative activity | 76.2 ± 5.20% | > 100 µM | 1.95 ± 0.381 µM | 13.5 ± 3.66 µM
2 | COc1cc(C2Oc3c(OC)cc(/C=C\C(=O)NCCc4ccc(O)cc4)cc3C2C(=O)NCCc2ccc(O)cc2)ccc1O (stereo not drawn) [Compound 1, N-cis-grossamide] | – | – | – | – | 16.74 ± 0.65% | – | 84.4 ± 1.79 µM | – | – | – | 20.15 ± 0.12% | – | – | 24.53 ± 1.54% | – | – | 34.25 ± 2.81% | > 100 µM | 4.41 ± 0.249 µM | –
